Reference: patent US20160158179A1, “NANOEMULSION THERAPEUTIC COMPOSITIONS AND METHODS OF USING THE SAME” (THE REGENTS OF THE UNIVERSITY OF MICHIGAN, priority 2008, published 2016)
Converted amounts (≈) assume the structure as drawn.

Experiments:
[1] = tested on: Myeloperoxidase; test: Detection of neutrophil sequestration (myeloperoxidase assay); type: in vivo, Sprague-Dawley rats; details: infected burn wound, 32 hours post-injury
Description: The occlusive dressing and TELFA was removed.
100 mg of skin tissue was mechanically homogenized in 1 mL ice cold potassium phosphate buffer consisting of 115 mM monobasic potassium phosphate (Sigma Aldrich, Milwaukee, Wis.). Homogenates were centrifuged at 3000 g for 10 min at 4° C., the supernatants were removed and the pellets were re-suspended in 1 mL C-TAB buffer consisting of dibasic potassium phosphate, cetyltrimethylammonium bromide, and acetic acid (Sigma Aldrich, Milwaukee, Wis.). The suspensions were sonicated (Branson Sonifier 250, Danbury, Conn.) on ice for 40 seconds. Homogenates were centrifuged at 3000 g for 10 min at 4° C. and the supernatant collected. Supernatants were incubated in 60° C. water bath for 2 hours (Shaker Bath, 2568; Forma Scientific, Marietta, Ohio). Samples were stored at −80° C. until needed or assayed immediately.

[2] = tested on: IL1-β, IL-6, TNF-α, CINC-1, CINC-3, IL-10 and TGF-β; test: Dermal cytokine analysis (ELISA) of burn wound skin; type: in vivo, Sprague-Dawley rats
Description: After drying, an occlusive dressing of sterile […] […] Stock nanoemulsion […] […] The occlusive dressing and TELFA was removed. […] Homogenates were centrifuged at 3000 g for 5 minutes and the supernatants collected and stored frozen at -80° C. until use. Rat IL1-β, IL-6, […]-10 and TGF-β were measured by sandwich enzyme-linked immunosorbent assay (ELISA) using antibodies and reagents from R&D Systems, Inc. (Minneapolis, Minn.). The assay was carried out in 96-well microplates (Immunoplate Maxisorb, Nunc, Neptune, N.J.) according to the kit instructions and samples were read using a microplate reader (Biotek Instruments, Winooski, Vt.) at 450 nm with a wavelength correction of 540 nm. Cytokine concentrations were determined using the plate reader software and a 7-point standard curve. Results were adjusted for previous dilution and expressed as pg/mL.

[3] = tested on: Stenotrophomonas strains; test: Checkerboard synergy study (FIC/FBC index); type: cell-based, Stenotrophomonas maltophilia; details: Stenotrophomonas; in combination with P4075EC+EDTA
[4] = tested on: Pseudomonas aeruginosa; test: MIC and MBC determination (CLSI, alamar blue), CF isolates; details: Pseudomonas
[5] = tested on: Burkholderia cepacia; test: MIC determination, CLSI microdilution with alamar blue; type: cell-based; details: Burkholderia cepacia (n = 5); nanoemulsions in the presence of 5 mM EDTA
[6] = tested on: Burkholderia strains; test: Checkerboard synergy study (FIC/FBC index); type: cell-based, Burkholderia cenocepacia; details: Burkholderia; in combination with P4075EC+EDTA
[7] = tested on: Acinetobacter baumannii; test: MIC and MBC determination (CLSI, alamar blue); details: Acinetobacter
[8] = tested on: Burkholderia cenocepacia; test: MIC and MBC determination (CLSI, alamar blue), CF isolates
[9] = tested on: Stenotrophomonas maltophilia; test: as above
[10] = tested on: Acinetobacter strains; test: Checkerboard synergy study (FIC/FBC index); type: cell-based, Acinetobacter baumannii; details: Acinetobacter; in combination with P4075EC+EDTA
[11] = tested on: Proteus mirabilis; test: MIC determination, CLSI microdilution with alamar blue; type: cell-based; details: Proteus mirabilis (n = 5); nanoemulsions in the presence of 5 mM EDTA; in µg/mL

NCc1ccc(S(N)(=O)=O)cc1 [Sulfamylon, mafenide acetate]
myeloperoxidase [1]: 0.08 ± 0.02 µg/mL
level of IL-10 or TGF-β in the infected burn wound ([2]; 32 hours): did not suppress
dermal levels of proinflammatory cytokines IL-6, TNF-α, CINC-1 or CINC-3 compared to controls ([2]; infected burn wound): did not result in any significant alteration

NC[C@H]1O[C@H](O[C@H]2[C@H](O)[C@@H](O[C@H]3O[C@H](CO)[C@@H](O)[C@H](N)[C@H]3O)[C@H](N)C[C@@H]2N)[C@H](N)C[C@@H]1O [Tobramycin]
Overall synergy result [3]: No Interference
MIC 50 [4]: 1 µg/mL (≈ 2.14 µM)
MIC 90 [4]: 16 µg/mL (≈ 34.2 µM)
MIC 50 [5]: 16 µg/mL
Overall synergy result [6]: No Interference
MIC 50 [7]: 1 µg/mL (≈ 2.14 µM)
MIC 90 [7]: 16 µg/mL (≈ 34.2 µM)
MIC 90 ([8]; Burkholderia): >32 µg/mL
MIC 50 ([8]; Burkholderia cenocepacia): > 32 µg/mL
MIC 90 ([8]; Burkholderia cenocepacia): > 32 µg/mL
MIC 50 ([9]; Stenotrophomonas): >32 µg/mL
MIC 90 ([9]; Stenotrophomonas): >32 µg/mL
MIC 50 ([9]; Stenotrophomonas maltophilia): > 32 µg/mL
MIC 90 ([9]; Stenotrophomonas maltophilia): > 32 µg/mL
Overall synergy result [10]: No Interference

Piperacillin/tazobactam
MIC Range [11]: <=0.5-1
